Results as given in patent US20250382305A1 (PTC THERAPEUTICS, INC., priority 2022, published 2025).

What was measured:
ATXN3 pre-mRNA = test: RT-qPCR Assay to Quantify Exon 4 Skipping in ATXN3 pre-mRNA in Cells; format: cell-based; settings: percent exon 4 skipping in ATXN3 pre-mRNA, RT-qPCR of cell lysates; average IC50
Outline: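 Cells plated at 10,000/well onto a 7-point, 3.16-fold DMSO dilution series (duplicates), incubated 24 h at 37 °C, then lysed. Exon 4 skipping measured by one-step RT-qPCR (48 °C RT, 40 cycles); IC50 interpolated from dose-response fit of percent skipping.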

[1] = system: Total ATXN3 (tATXN3) protein; test: Endogenous Total ATXN3 (tATXN3) Protein Assay (MSD immunoassay of cell lysates); format: cell-based; settings: average IC50, total ATXN3 protein in cell lysate after 48 h with compound (Table 1)
Outline: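 Cells in DMEM/10% FBS were plated at 10,000 per well onto 7-point, 3.16-fold compound dilutions in duplicate for 48 h at 37° C, then lysed. Total ATXN3 in lysates was measured by MSD sandwich immunoassay: mouse anti-ATXN3 capture, rabbit anti-ATXN3 detection, SULFO-TAG anti-rabbit. Average IC50 was reported in star bins.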

Q: N[C@H]1CCCC[C@]1(F)c1sc2c(NCc3ccccc3)cc(Cl)nc2c1Br [Compound 37, 2-((1R,2S)-2-amino-1-fluorocyclohexyl)-N-benzyl-3-bromo-5-chlorothieno[3,2-b]pyridin-7-amine] was tested. Which IC50 (ATXN3 pre-mRNA) did it give?
A: 30 to 300 nM

Q: What about the IC50 [1] of the same molecule?
A: 300 to 1000 nM

Q: For N[C@@H]1CCCN[C@H]1c1sc2c(NCc3cccs3)cc(Cl)nc2c1Br.N[C@H]1CCCN[C@@H]1c1sc2c(NCc3cccs3)cc(Cl)nc2c1Br (mixture of isomers) [Compound 47, 2-((2R,3R)-3-aminopiperidin-2-yl)-3-bromo-5-chloro-N-(thiophen-2-ylmethyl)thieno[3,2-b]pyridin-7-amine and 2-((2S,3S)-3-aminopiperidin-2-yl)-3-bromo-5-chloro-N-(thiophen-2-ylmethyl)thieno[3,2-b]pyridin-7-amine], which IC50 (ATXN3 pre-mRNA) is on record?
A: 300 to 1000 nM

Q: And the IC50 [1]?
A: > 1000 nM

Q: For N[C@@H]1CCOC[C@H]1c1sc2c(NCc3cccs3)cc(Cl)nc2c1Cl [Compound 405, 2-((3S,4R)-4-aminotetrahydro-2H-pyran-3-yl)-3,5-dichloro-N-(thiophen-2-ylmethyl)thieno[3,2-b]pyridin-7-amine], which IC50 (ATXN3 pre-mRNA) is on record?
A: ≤ 30 nM

Q: What about the IC50 [1] of the same molecule?
A: ≤ 30 nM

Q: For CC1=C(C)C[C@H](N)[C@@H](c2sc3c(NCc4ccco4)cc(Cl)nc3c2Cl)C1 [Compound 233, 2-((1S,6S)-6-amino-3,4-dimethylcyclohex-3-en-1-yl)-3,5-dichloro-N-(furan-2-ylmethyl)thieno[3,2-b]pyridin-7-amine], which IC50 (ATXN3 pre-mRNA) is on record?
A: ≤ 30 nM

Q: What about the IC50 [1] of the same molecule?
A: ≤ 30 nM

Q: What does the source list for CN(Cc1ccccc1)c1cc(Cl)nc2c(C#CCCCO)c([C@H]3CC=CC[C@@H]3N)sc12 [Compound 453, 5-(2-((1S,6S)-6-aminocyclohex-3-en-1-yl)-7-(benzyl(methyl)amino)-5-chlorothieno[3,2-b]pyridin-3-yl)pent-4-yn-1-ol]?
A: IC50 (ATXN3 pre-mRNA): 300 to 1000 nM; IC50 [1]: 300 to 1000 nM

Q: For CC1=C(C)C[C@@H](c2sc3c(NCc4ccco4)cc(Cl)nc3c2Cl)[C@H](N)C1 [Compound 444, 2-((1R,6R)-6-amino-3,4-dimethylcyclohex-3-en-1-yl)-3,5-dichloro-N-(furan-2-ylmethyl)thieno[3,2-b]pyridin-7-amine], which IC50 (ATXN3 pre-mRNA) is on record?
A: 300 to 1000 nM

Q: What about the IC50 [1] of the same molecule?
A: > 1000 nM

Q: Cc1c([C@H]2CC=CC[C@@H]2N)sc2c(NCc3ccco3)cc(Cl)nc12 [Compound 184, 2-((1S,6S)-6-aminocyclohex-3-en-1-yl)-5-chloro-N-(furan-2-ylmethyl)-3-methylthieno[3,2-b]pyridin-7-amine] was tested. Which IC50 (ATXN3 pre-mRNA) did it give?
A: ≤ 30 nM

Q: And the IC50 [1]?
A: ≤ 30 nM

Q: How did the IC50 (ATXN3 pre-mRNA) turn out when CC#CCNc1cc(Cl)nc2c(Br)c([C@H]3CCCC[C@@H]3N)sc12 [Compound 301, 2-((1S,2S)-2-aminocyclohexyl)-3-bromo-N-(but-2-yn-1-yl)-5-chlorothieno[3,2-b]pyridin-7-amine] was run?
A: 30 to 300 nM

Q: What about the IC50 [1] of the same molecule?
A: 30 to 300 nM

Q: With “2-((1R,2R)-2-amino-4,4-dimethylcyclohexyl)-3-bromo-5-chloro-N-(thiophen-2-ylmethyl)thieno[3,2-b]pyridin-7-amine and 2-((1S,2S)-2-amino-4,4-dimethylcyclohexyl)-3-bromo-5-chloro-N-(thiophen-2-ylmethyl)thieno[3,2-b]pyridin-7-amine [Compound 152]” as the molecule, how does the IC50 (ATXN3 pre-mRNA) read?
A: 30 to 300 nM

Q: And the IC50 [1]?
A: 30 to 300 nM

Q: With Cc1c([C@H]2CCC[C@@H]2N)sc2c(NCc3cccs3)cc(Cl)nc12 [Compound 6, 2-((1S,2S)-2-aminocyclopentyl)-5-chloro-3-methyl-N-(thiophen-2-ylmethyl)thieno[3,2-b]pyridin-7-amine] as the molecule, how does the IC50 (ATXN3 pre-mRNA) read?
A: 30 to 300 nM

Q: And the IC50 [1]?
A: 30 to 300 nM

Q: N[C@@H]1COCC[C@H]1c1sc2c(NCc3nccs3)cc(Cl)nc2c1Cl [Compound 407, 2-((3S,4R)-3-aminotetrahydro-2H-pyran-4-yl)-3,5-dichloro-N-(thiazol-2-ylmethyl)thieno[3,2-b]pyridin-7-amine] was tested. Which IC50 (ATXN3 pre-mRNA) did it give?
A: 30 to 300 nM

Q: What about the IC50 [1] of the same molecule?
A: 30 to 300 nM

Q: Which IC50 (ATXN3 pre-mRNA) does the source give for CC#CCNc1cc(Cl)nc2c(I)c([C@@H]3CC=CC[C@H]3N)sc12 [Compound 386, 2-((1R,6R)-6-aminocyclohex-3-en-1-yl)-N-(but-2-yn-1-yl)-5-chloro-3-iodothieno[3,2-b]pyridin-7-amine] here?
A: 30 to 300 nM

Q: And the IC50 [1]?
A: 30 to 300 nM
